In patent US20080255206A1, “Rxr Agonists and Antagonists, Alone or in Combination with Ppar Ligands, in the Treatment of Metabolic and Cardiovascular Diseases” (priority 2005, published 2008):

Columns and labels:
RARγ = biological target: T1, RARγ (Homo sapiens, UniProt P13631); test: Retinoid binding assay, RARγ; settings: read-out: Binding Affinity IC50 RAR γ
T1 construct: The DEF domains of RAR's and the full length RXR's, expressed in E.coli; made in house; host or cells: E. coli
T1 sequence (P13631 185-419 limits assumed): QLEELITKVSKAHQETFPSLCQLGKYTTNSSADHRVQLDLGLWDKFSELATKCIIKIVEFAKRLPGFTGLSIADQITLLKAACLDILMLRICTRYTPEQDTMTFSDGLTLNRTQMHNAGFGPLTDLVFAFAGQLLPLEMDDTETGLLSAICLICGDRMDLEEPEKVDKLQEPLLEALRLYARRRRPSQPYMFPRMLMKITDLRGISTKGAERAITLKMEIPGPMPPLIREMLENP
Excerpt: (§1) The DEF domains of RAR's and the full length RXR's, expressed in E.coli, are used to measure competitive retinoid binding. […] 9-cis retinoic acid (for RXR's), respectively. […] Separation of bound from free radioactivity is achieved by charcoal/dextran (RAR's) or by desalting columns (RXR's). […] Retinoid Activation Assays

RXRα Homodimer = biological target: T2, RXRα Homodimer (Homo sapiens, UniProt P19793); test: RXRα homodimer activation (transactivation) assay; assay type: cell-based
T2 construct: expressed in transfected cells; host or cells: mammalian cells (BHK21, CV1, etc)
T2 sequence (P19793 1-462): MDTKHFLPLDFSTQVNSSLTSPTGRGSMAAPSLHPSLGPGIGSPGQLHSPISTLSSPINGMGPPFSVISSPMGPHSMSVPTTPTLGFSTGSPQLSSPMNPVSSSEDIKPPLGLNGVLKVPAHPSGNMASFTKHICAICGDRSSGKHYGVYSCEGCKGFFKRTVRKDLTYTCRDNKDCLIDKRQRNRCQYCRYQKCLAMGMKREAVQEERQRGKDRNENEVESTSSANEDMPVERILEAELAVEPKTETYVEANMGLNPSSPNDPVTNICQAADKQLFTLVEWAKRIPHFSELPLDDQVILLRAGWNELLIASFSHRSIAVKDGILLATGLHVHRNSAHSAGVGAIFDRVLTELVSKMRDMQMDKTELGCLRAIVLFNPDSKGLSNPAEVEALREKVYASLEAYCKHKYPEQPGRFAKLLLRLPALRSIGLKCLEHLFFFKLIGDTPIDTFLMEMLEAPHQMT
Excerpt: (§2) Nuclear hormone receptor (NHR) ligand dependent transcriptional transactivation assay.
This secondary in vitro functional assay to characterize hits from the primary ligand binding screens is a GAL4-LBD transactivation assay. The Gal4-LBD protein consists of an in frame fusion of the transcription factor galactose 4 DNA binding domain from S.cerevisiae with the ligand binding domain (LBD) of a particular NHR. Briefly, a plasmid construct expressing the recombinant chimeric receptor is co-transfected into mammalian cells (BHK21, CV1, etc) with a luciferase reporter plasmid containing several copies in tandem of the GAL4 binding sites (promoter recognition elements) upstream from the minimal promoter driving the luciferase gene. The transfected cells are treated with compounds for 12-24 hours, lysates are produced and assayed for luciferase activity and normalized to internal standards such as GH, growth hormone or SEAP, secreted alkaline phosphatase. Ligand binding stabilizes the LBD conformation that recruits endogenous co-factors that mediate eventually the increased transcriptional activity of the luciferase reporter gene. By comparing the activation profile of a reference ligand or a natural ligand, the EC50 values for agonistic activity of a particular ligand can be measured. The extent of activation that can be measured is indicative of a partial, respectively full agonistic activity of a ligand. […]

RARα = biological target: T3, RARα (Homo sapiens, UniProt P10276); test: Retinoid binding assay, RARα; design: The DEF domains of RAR's and the full length RXR's, expressed in E.coli; made in house; host or cells: E. coli; settings: read-out: Binding Affinity IC50 RAR α
T3 sequence (P10276 183-417 limits assumed): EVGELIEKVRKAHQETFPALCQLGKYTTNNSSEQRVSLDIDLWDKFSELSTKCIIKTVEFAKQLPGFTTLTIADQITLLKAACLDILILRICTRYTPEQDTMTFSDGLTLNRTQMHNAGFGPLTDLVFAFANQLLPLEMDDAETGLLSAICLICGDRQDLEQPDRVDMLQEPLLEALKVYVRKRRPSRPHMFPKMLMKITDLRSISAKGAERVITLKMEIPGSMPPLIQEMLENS
Excerpt: as §1

RARβ = biological target: T4, RARβ (Homo sapiens, UniProt P10826); test: Retinoid binding assay, RARβ; design: The DEF domains of RAR's and the full length RXR's, expressed in E.coli; made in house; host or cells: E. coli; settings: read-out: Binding Affinity IC50 RAR β
T4 sequence (P10826 183-417 limits assumed): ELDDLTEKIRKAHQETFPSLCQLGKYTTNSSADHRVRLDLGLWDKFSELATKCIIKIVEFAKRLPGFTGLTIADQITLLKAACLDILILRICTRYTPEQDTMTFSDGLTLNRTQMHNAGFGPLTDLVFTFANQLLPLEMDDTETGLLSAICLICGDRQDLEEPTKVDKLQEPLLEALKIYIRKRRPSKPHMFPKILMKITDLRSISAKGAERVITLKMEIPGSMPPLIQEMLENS
Excerpt: as §1

PPARγ/RXRα Heterodimer = biological target: T5, PPARγ/RXRα Heterodimer (Homo sapiens, UniProt P19793); test: PPARγ/RXRα heterodimer activation (transactivation) assay; assay type: cell-based
T5 construct: co-transfected with plasmids expressing the full length RXR heteropartner receptor; expressed in transfected cells
T5 sequence (P19793 1-462): T2 sequence (P19793 1-462)
T5 sequence (P37231 1-505 partner): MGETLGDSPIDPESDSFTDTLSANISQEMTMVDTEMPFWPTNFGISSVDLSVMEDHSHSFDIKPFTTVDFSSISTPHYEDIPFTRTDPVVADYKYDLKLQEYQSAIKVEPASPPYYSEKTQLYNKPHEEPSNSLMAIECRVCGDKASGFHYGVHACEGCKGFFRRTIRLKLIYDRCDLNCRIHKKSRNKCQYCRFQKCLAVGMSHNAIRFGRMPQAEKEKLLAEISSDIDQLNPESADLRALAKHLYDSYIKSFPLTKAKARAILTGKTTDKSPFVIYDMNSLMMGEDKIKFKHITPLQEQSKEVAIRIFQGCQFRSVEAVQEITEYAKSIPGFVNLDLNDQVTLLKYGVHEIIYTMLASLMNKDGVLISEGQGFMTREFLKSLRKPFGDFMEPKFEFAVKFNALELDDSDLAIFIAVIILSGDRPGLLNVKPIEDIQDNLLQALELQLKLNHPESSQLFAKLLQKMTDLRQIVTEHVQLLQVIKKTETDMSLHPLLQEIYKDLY
Excerpt: as §2
Heterodimer reporter assays are potentially more important selection criteria for synthetic agonistic NHR ligands as they embody a more natural situation. Basically plasmids expressing the recombinant full length NHR are co-transfected with plasmids expressing the full length RXR heteropartner receptor and a reporter plasmid containing several copies of the natural responsive elements for the respective NHR driving the luciferase reporter gene.

| SMILES | IC50 (RARγ) [µM] | EC50 (RXRα Homodimer) [µM] | IC50 (RARα) [µM] | IC50 (RARβ) [µM] | EC50 (PPARγ/RXRα Heterodimer) [µM] |
| --- | --- | --- | --- | --- | --- |
| CC(/C=C/[C@@H]1C[C@@H]1c1ccc2c(c1)C(C)(C)CCC2(C)C)=C\C(=O)O (racemic) [Compound 4, (2E,4E)-3-methyl-5-[(1RS,2RS)-2-(5,5,8,8-tetramethyl-5,6,7,8-tetrahydro-naphthalen-2-yl)-cyclopropyl]-penta-2,4-dienoic acid] | 7.5 | 0.0035 | > 10 | > 10 |  |
| CCCCOc1c([C@@H]2C[C@@H]2/C=C/C(C)=C/C(=O)O)cc(C(C)(C)C)cc1C(C)(C)C (racemic) [Compound 16, (2E,4E)-(1RS,2RS)-5-[2-(3,5-Di-tert-butyl-2-butoxy-phenyl)-cyclopropyl]-3-methyl-penta-2,4-dienoic acid] | > 10 | > 10 | > 10 | > 10 | > 10 |
| CCOc1c([C@@H]2C[C@@H]2/C=C/C(C)=C/C(=O)O)cc(C(C)(C)C)cc1C(C)(C)C (racemic) [Compound 17, (2E,4E)-(1RS,2RS)-5-[2-(3,5-Di-tert-butyl-2-ethoxy-phenyl)-cyclopropyl]-3-methyl-penta-2,4-dienoic acid] | > 10 | > 10 | > 10 | > 10 | > 10 |
| CC1=C(/C=C/C2=C(/C=C/C(C)=C/C(=O)O)CCCCC2)C(C)(C)CCC1 [Compound 1, (2E,4E)-3-methyl-5-[2-[(E)-2-(2,6,6-trimethyl-1-cyclohexen-1-yl)ethenyl]-1-cyclohepten-1-yl]-2,4-pentadienoic acid] | > 10 | 0.0014 | > 10 | > 10 | 0.07 |
| CC1=C(/C=C/c2sccc2/C=C/C(C)=C/C(=O)O)C(C)(C)CCC1 [Compound 5, (2E,4E)-3-Methyl-5-[2-[(E)-2-(2,6,6-trimethyl-1-cyclohexen-1-yl)ethenyl]-3-thienyl]-2,4-pentadienoic acid] | 5.3 | 0.0008 | 1.6 | 1 | 0.0015 |
| CC(/C=C/C1=C(c2ccc3c(c2)C(C)(C)CCC3(C)C)CCCC1)=C\C(=O)O [Compound 6, (2E,4E)-3-Methyl-5-[2-(5,5,8,8-tetramethyl-5,6,7,8-tetrahydro-naphthalen-2-yl)-cyclohex-1-enyl]-penta-2,4-dienoic acid] | > 10 | 0.019 | > 10 | > 10 |  |
| CC(/C=C/c1ccccc1-c1ccc2c(c1)C(C)(C)CCC2(C)C)=C\C(=O)O [Compound 7, (2E,4E)-3-methyl-5-[2-(5,5,8,8-tetramethyl-5,6,7,8-tetrahydro-naphthalen-2-yl)-phenyl]-penta-2,4-dienoic acid] | 6.3 | 0.006 | > 10 | > 10 |  |
| CC(/C=C/c1sccc1-c1ccc2c(c1)C(C)(C)CCC2(C)C)=C\C(=O)O [Compound 9] | 3.6 | 0.0025 | 3.4 | 3.8 | 0.038 |
| CC(/C=C/C1=C(c2ccc3c(c2)C(C)(C)CCC3(C)C)CCC1)=C\C(=O)O [Compound 12, (2E,4E)-3-Methyl-5-[2-(5,5,8,8-tetramethyl-5,6,7,8-tetrahydro-naphthalen-2-yl)-cyclopent-1-enyl]-penta-2,4-dienoic acid] | 6.6 | 0.009 | 3.5 | 2.5 | 0.0077 |
| C/C(=C/C=C/C(C)=C/C(=O)O)c1cc2c(cc1C)C(C)(C)CCCC2 [Compound 13, (2E,4E,6Z)-3-Methyl-7-(3,5,5,-trimethyl-6,7,8,9-tetrahydro-5H-benzocyclohepten-2-yl)-octa-2,4,6-trienoic acid] | 5.3 | 0.0015 | 6.5 |  | 0.023 |
| CC1=C(/C=C/C2=C(/C=C/C(C)=C/C(=O)O)CCC2)C(C)(C)CCC1 [Compound 14, (2E,4E)-3-Methyl-5-[2-[(E)-2-(2,6,6-trimethyl-1-cyclohexen-1-yl)ethenyl]-1-cyclopenten-1-yl]-2,4-pentadienoic acid] |  | 0.006 |  |  | 0.007 |
| CCCCOc1c(\C(C)=C/C=C/C(C)=C/C(=O)O)cc(C(C)(C)C)cc1C(C)(C)C [Compound 15, (2E,4E,6Z)-7-[2-butoxy-3,5-bis(1,1-dimethylethyl)phenyl]-3-methyl-2,4,6-octatrienoic acid] | 2.7 | > 10 | 4.2 | > 10 | > 10 |
| CC1=C(C#CC2=C(/C=C/C(C)=C/C(=O)O)CCCCC2)C(C)(C)CCC1 [Compound 18] | > 10 | > 10 | > 10 | > 10 | > 10 |
| CCOc1c(\C(C)=C/C=C/C(C)=C/C(=O)O)cc(C(C)(C)C)cc1C(C)(C)C [Compound 21, (2E,4E,6Z)-7-[3,5-Bis(1,1-dimethylethyl)-2-ethoxyphenyl]-3-methyl-2,4,6-octatrienoic acid/ethyl ester] | > 10 | > 10 | > 10 | > 10 | 0.00125 |
| CCC1(CC)CCC(C)(C)c2cc(\C(C)=C/C=C/C(C)=C/C(=O)O)ccc21 [Compound 24, (2E,4E,6Z)-7-(5,5-Diethyl-8,8-dimethyl-5,6,7,8-tetrahydro-naphthalen-2-yl)-3-methyl-octa-2,4,6-trienoic acid] | 0.033 | > 10 | 0.046 | 0.02 | 0.0035 |
